# Key:
# RSV-Luc5 = assay: microbe, parasite or virus in culture; type: cell-based; conditions: human respiratory syncytial virus, NHBE, 72 h, read-out: RSV NHBE EC50 (nM)
# in vitro [1] = type: in vitro ADME; conditions: human, s9, pH 7.4
# Procedure: Example D: GI S9 Stability […] The S9 metabolic reactions were initiated by the addition of the substrates to the S9 reaction mixture to a final concentration of 2 μM. […] Aliquots ([…]) of the diluted supernatant were analyzed on a Thermo Q-Exactive mass spectrometer as described below. Example F: Liquid Chromatography/Mass Spectroscopy Methods for S9 and Plasma Stability Quantification of test compounds, Reference Compound A (S9 stability assay nucleoside metabolite), and controls was performed by analyte/internal standard peak area ratio (PAR) values measured on a Thermo Q-Exactive mass spectrometer coupled to a Dionex UltiMate 3000 HPLC with a Leap Technologies HTC PAL autosampler. […] Mobile phase A consisted of 0.1% (v/v) formic acid in water. Mobile phase B consisted of 0.1% (v/v) formic acid in acetonitrile. Elution of analytes was achieved by a series of linear gradients of acetonitrile in water containing 0.10% (v/v) formic acid. The mass spectrometer was calibrated on a weekly basis and mass tolerance of 5 ppm was used.
# in vitro [2] = type: cell-based; conditions: human
# Procedure: Example C: CC50 MT4 Cytotoxicity of the compounds was determined in uninfected cells using the cell viability reagent in a similar fashion as described before for other cell types ([…] et al., Antimicrob Agents Chemother. 2008,52(2):655-65). […] Cells were cultured for 4-5 days at 37° C. Following the incubation, the cells were allowed to equilibrate to 25° C., and cell viability was determined by adding Cell-Titer Glo viability reagent. The mixture was incubated for 10 min, and the luminescence signal was quantified using an Envision plate reader. Untreated cell and cells treated at 2 μM puromycin (Sigma, St. Louis, MO) serve as 100% and 0% cell viability control, respectively. The percent of cell viability was calculated for each tested compound concentration relative to the 0% and 100% controls and the CC50 value was determined by non-linear regression as a compound concentration reducing the cell viability by 50%.
# SARS-CoV2-NLuc = assay: microbe, parasite or virus in culture; type: cell-based, SARS Coronavirus 2; conditions: Severe acute respiratory syndrome coronavirus 2, 48 h, read-out: SARS-CoV2 EC50 (nM)
# in vitro [3] = conditions: human, plasma
# [4] = test system: Caco-2 cells (clone C2BBe1); conditions: human, Caco-2
SMILES,EC50 (RSV-Luc5) [nM],half-life at 2 μM (in vitro [1]) [min],CC50 (in vitro [2]) [µM],EC50 (SARS-CoV2-NLuc) [nM],half-life at 2 μM (in vitro [3]) [min],Caco2 A to B [4],Caco2 B to A [4]
"CC1(C)CC(=O)O[C@H]2[C@@H](OC(=O)C1)[C@](C#N)(c1ccc3c(N)ncnn13)O[C@@H]2CO [Compound C11, (7aR,8R,10R,10aR)-8-(4-aminopyrrolo[2,1-f][1,2,4]triazin-7-yl)-10-(hydroxymethyl)-4,4-dimethyl-2,6-dioxooctahydro-2H-furo[3,4-b][1,4]dioxonine-8-carbonitrile]",> 50000,24.3,> 50,> 50000,414,–,–
"COC(=O)OC[C@H]1O[C@@](C#N)(c2ccc3c(N)ncnn23)[C@@H]2OC(=O)CC(C)(C)CC(=O)O[C@@H]21 [Compound C15, ((7aR,8R,10R,10aR)-10-(4-aminopyrrolo[2,1-f][1,2,4]triazin-7-yl)-10-cyano-4,4-dimethyl-2,6-dioxooctahydro-2H-furo[3,4-b][1,4]dioxonin-8-yl)methyl methyl carbonate]",> 50000,6.22,> 50,> 50000,16.1,–,–
"CC(C)(OC(=O)OC[C@H]1O[C@@](C#N)(c2ccc3c(N)ncnn23)[C@@H]2OC(=O)CCCC(=O)O[C@@H]21)c1ccncc1 [Compound C17, ((7aR,8R,10R,10aR)-10-(4-aminopyrrolo[2,1-f][1,2,4]triazin-7-yl)-10-cyano-2,6-dioxooctahydro-2H-furo[3,4-b][1,4]dioxonin-8-yl)methyl (2-(pyridin-4-yl)propan-2-yl) carbonate]",> 50000,–,> 50,29900,31.1,2.97,15.86
"CC(C)COC(=O)OC[C@H]1O[C@@](C#N)(c2ccc3c(N)ncnn23)[C@@H]2OC(=O)CCCC(=O)O[C@@H]21 [Compound C18, ((7aR,8R,10R,10aR)-10-(4-aminopyrrolo[2,1-f][1,2,4]triazin-7-yl)-10-cyano-2,6-dioxooctahydro-2H-furo[3,4-b][1,4]dioxonin-8-yl)methyl isobutyl carbonate]",8490,0.724,> 50,1780,7.57,–,–
"N#C[C@@]1(c2ccc3c(N)ncnn23)O[C@H](COC(=O)OCCN2CCOCC2)[C@H]2OC(=O)CCCC(=O)O[C@H]21 [Compound C19, ((7aR,8R,10R,10aR)-10-(4-aminopyrrolo[2,1-f][1,2,4]triazin-7-yl)-10-cyano-2,6-dioxooctahydro-2H-furo[3,4-b][1,4]dioxonin-8-yl)methyl (2-morpholinoethyl) carbonate]",8620,0.552,> 50,4310,90.3,–,–
"CC(C)(OC(=O)OC[C@H]1O[C@@](C#N)(c2ccc3c(N)ncnn23)[C@@H]2OC(=O)CCCC(=O)O[C@@H]21)C(F)F [Compound C25, ((7aR,8R,10R,10aR)-10-(4-aminopyrrolo[2,1-f][1,2,4]triazin-7-yl)-10-cyano-2,6-dioxooctahydro-2H-furo[3,4-b][1,4]dioxonin-8-yl)methyl (1,1-difluoro-2-methylpropan-2-yl) carbonate]",6460,0.559,> 50,34300,11.9,–,–
"CCOC(=O)C(C)(C)OC(=O)OC[C@H]1O[C@@](C#N)(c2ccc3c(N)ncnn23)[C@@H]2OC(=O)CCCC(=O)O[C@@H]21 [Compound C26, ethyl 2-(((((7aR,8R,10R,10aR)-10-(4-aminopyrrolo[2,1-f][1,2,4]triazin-7-yl)-10-cyano-2,6-dioxooctahydro-2H-furo[3,4-b][1,4]dioxonin-8-yl)methoxy)carbonyl)oxy)-2-methylpropanoate]",> 50000,0.618,> 50,39900,18.3,–,–
"CC(C)(C)COC(=O)OC[C@H]1O[C@@](C#N)(c2ccc3c(N)ncnn23)[C@@H]2OC(=O)CCCC(=O)O[C@@H]21 [Compound C29, ((7aR,8R,10R,10aR)-10-(4-aminopyrrolo[2,1-f][1,2,4]triazin-7-yl)-10-cyano-2,6-dioxooctahydro-2H-furo[3,4-b][1,4]dioxonin-8-yl)methyl neopentyl carbonate]",4660,0.587,> 50,2220,12.1,–,–
"CCOC(=O)[C@@H]1[C@H](OC(=O)OC[C@H]2O[C@@](C#N)(c3ccc4c(N)ncnn34)[C@@H]3OC(=O)CCCC(=O)O[C@@H]32)CCN1C [Compound C32, ethyl (2S,3R)-3-(((((7aR,8R,10R,10aR)-10-(4-aminopyrrolo[2,1-f][1,2,4]triazin-7-yl)-10-cyano-2,6-dioxooctahydro-2H-furo[3,4-b][1,4]dioxonin-8-yl)methoxy)carbonyl)oxy)-1-methylpyrrolidine-2-carboxylate]",7650,0.566,> 50,4970,30.9,–,–
"CC(C)COC(=O)OC[C@H]1O[C@@](C#N)(c2ccc3c(N)ncnn23)[C@@H]2OC(=O)CC(C)(C)CC(=O)O[C@@H]21 [Compound C35, ((7aR,8R,10R,10aR)-10-(4-aminopyrrolo[2,1-f][1,2,4]triazin-7-yl)-10-cyano-4,4-dimethyl-2,6-dioxooctahydro-2H-furo[3,4-b][1,4]dioxonin-8-yl)methyl isobutyl carbonate]",> 50000,0.609,> 50,> 50000,73.6,–,–
"CC1(C)CC(=O)O[C@H]2[C@@H](OC(=O)C1)[C@](C#N)(c1ccc3c(N)ncnn13)O[C@@H]2COC(=O)OC1CCCC1 [Compound C37, ((7aR,8R,10R,10aR)-10-(4-aminopyrrolo[2,1-f][1,2,4]triazin-7-yl)-10-cyano-4,4-dimethyl-2,6-dioxooctahydro-2H-furo[3,4-b][1,4]dioxonin-8-yl)methyl cyclopentyl carbonate]",> 50000,5.15,> 50,> 50000,300,–,–
"CC1(C)CC(=O)O[C@H]2[C@@H](OC(=O)C1)[C@](C#N)(c1ccc3c(N)ncnn13)O[C@@H]2COC(=O)OC(CF)CF [Compound C44, ((7aR,8R,10R,10aR)-10-(4-aminopyrrolo[2,1-f][1,2,4]triazin-7-yl)-10-cyano-4,4-dimethyl-2,6-dioxooctahydro-2H-furo[3,4-b][1,4]dioxonin-8-yl)methyl (1,3-difluoropropan-2-yl) carbonate]",> 50000,1.22,> 50,> 50000,133,–,–
"CCOC(=O)[C@@H]1[C@H](OC(=O)OC[C@H]2O[C@@](C#N)(c3ccc4c(N)ncnn34)[C@@H]3OC(=O)CC(C)(C)CC(=O)O[C@@H]32)CCN1C [Compound C49, ethyl (2S,3R)-3-(((((7aR,8R,10R,10aR)-10-(4-aminopyrrolo[2,1-f][1,2,4]triazin-7-yl)-10-cyano-4,4-dimethyl-2,6-dioxooctahydro-2H-furo[3,4-b][1,4]dioxonin-8-yl)methoxy)carbonyl)oxy)-1-methylpyrrolidine-2-carboxylate]",> 50000,7.81,> 50,> 50000,42.5,–,–
"CC(C)[C@H](NC(=O)OC(C)(C)C)C(=O)OC[C@H]1O[C@@](C#N)(c2ccc3c(N)ncnn23)[C@@H]2OC(=O)CCCC(=O)O[C@@H]21 [Compound C58, ((7aR,8R,10R,10aR)-10-(4-aminopyrrolo[2,1-f][1,2,4]triazin-7-yl)-10-cyano-2,6-dioxooctahydro-2H-furo[3,4-b][1,4]dioxonin-8-yl)methyl (tert-butoxycarbonyl)-L-valinate]",2840,0.577,> 50,5120,26.4,–,–
"CC(C)[C@H](N)C(=O)OC[C@H]1O[C@@](C#N)(c2ccc3c(N)ncnn23)[C@@H]2OC(=O)CCCC(=O)O[C@@H]21 [Compound C59, ((7aR,8R,10R,10aR)-10-(4-aminopyrrolo[2,1-f][1,2,4]triazin-7-yl)-10-cyano-2,6-dioxooctahydro-2H-furo[3,4-b][1,4]dioxonin-8-yl)methyl L-valinate]",5970,0.586,> 50,6830,18.5,–,–
